Legend:
[1] = Solvent stability of low melt form of 17-AAG slurried in H2O:EtOH (90:10); assay type: physicochemical; details: crystals slurried in H2O:EtOH (90:10)
Procedure: 17-AAG may be prepared from geldanamycin via reaction with allyamine in dry THF under a nitrogen atmosphere. The crude product may be purified by slurrying in H2O:EtOH (90:10), and the washed crystals obtained have a melting point of 206-212° C. by capillary melting point technique. A second product of 17-AAG can be obtained by dissolving and recrystallizing the crude product from 2-propyl alcohol (isopropanol). This second 17-AAG product has a melting point between 147-153° C. by capillary melting point technique. […] See Examples 1-2 for details of the preparation of the two polymorphic forms of 17-AAG. In addition to the high melt and low melt forms, it is well known that 17-AAG has an amorphous form.
The 17-AAG product from Example 2 was dissolved in 400 mL of H2O:EtOH (90:10) at 25° C. Filltration followed by aging at 45° C. for 8 hr gave […] (68.6 mmol) of 17-AAG as purple crystals (95% yield, >99% pure by HPLC monitored at 254 nm). m.p.=[…]. ^1H NMR and HPLC are consistent with the desired product.

tail vein = experiment: Intravenous injection and tolerance, tail vein injection into mice; assay type: in vivo; details: phospholipid dispersion
Procedure: (§1) Pharmacokinetics for the solution formulation and the dispersion formulation were very similar. The method of the invention was also used to prepare dispersion formulations with the hydrochloride and phosphate salts of Compound 237. […] Dispersion formulations were also prepared using water soluble and slightly water soluble derivatives of geldanamycin. Specifically, similar dispersions containing DMAG were similarly formulated and well-tolerated upon tail vein injection into mice and rats.

rat tail vein = experiment: Intravenous injection and tolerance, rat tail vein; assay type: in vivo; details: phospholipid dispersion; rats
Procedure: as §1

[2] = mean +/- SD; cited from earlier work

C=CCNC1=C2C[C@@H](C)C[C@H](OC)[C@H](O)[C@@H](C)/C=C(\C)[C@H](OC(N)=O)[C@@H](OC)/C=C\C=C(/C)C(=O)NC(=CC1=O)C2=O [low melt form of 17-AAG, 17-allylamino-17-desmethyl-geldanamycin]
conversion of low melt form to high melt form [1]: no conversion to the high melt form was observed

CO[C@H]1/C=C\C=C(/C)C(=O)NC2=CC(=O)C(NCCN(C)C)=C(C[C@@H](C)C[C@H](OC)[C@H](O)[C@@H](C)/C=C(\C)[C@@H]1OC(N)=O)C2=O [DMAG, 17-N,N-dimethylaminoethylaminogeldanamycin]
tolerance upon tail vein injection (tail vein): well-tolerated | tolerance upon tail vein injection (rat tail vein): well-tolerated

C=CCNC1=C2C[C@@H](C)C[C@H](OC)[C@H](O)[C@@H](C)/C=C(\C)[C@H](OC(N)=O)[C@@H](OC)/C=C\C=C(/C)C(=O)NC(=CC1=O)C2=O [Compound 17-AAG, 17-allylamino-17-desmethyl-geldanamycin]
steady-state volume [2]: 86.6+34.6 L/m^2
